In patent US9499550B2 (BRISTOL-MYERS SQUIBB COMPANY, priority 2012, dated 2016):

Columns and labels:
[1] = system: HCV genotype 1a (H77 strain) replicon in HUH-7 cells; assay: HCV replicon luciferase reporter assay, genotype 1a; format: cell-based; conditions: Hepatitis C virus, Huh-7, 72 h, HCV genotype 1a replicon luciferase assay, 3 days incubation, range class, read-out: LE_1a (EC50, range)
Outline: (§1)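 Replicon inhibition for both genotypes was measured as Renilla luciferase signal (EnduRen, 7.5 μM final, 2 h) after 3-day, 37° C exposure of replicon-bearing HUH-7 cells in 4% FCS DMEM, 0.5% DMSO. The 1b construct carries S1179I; the 1a H77 construct carries P1496L and S2204I. Twenty-point, 3-fold dilutions were fitted four-parametrically for EC50, and CC50 was taken from multiplexed Cell Titer-Blue.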

[2] = system: HCV genotype 1b (Con1) replicon in HUH-7 cells; assay: HCV replicon luciferase reporter assay, genotype 1b; format: cell-based; conditions: Hepatitis C virus, Huh-7, 72 h, HCV genotype 1b replicon luciferase assay, 3 days incubation, range class, read-out: LE_1b (EC50, range)
Outline: as §1

Row | Compound | EC50 [1] [nM] | EC50 [2] [nM]
1 | COCCOc1cnc(O[C@@H]2C[C@H]3C(=O)N[C@]4(C(=O)NS(=O)(=O)C5CC5)C[C@H]4/C=C\CC[C@@H](C)C[C@@H](C)[C@H](NC(=O)OC4COC4)C(=O)N3C2)c2ccc(OC)cc12 [Compound 1159, oxetan-3-yl ((2R,6S,7R,9R,13aS,14aR,16aS,Z)-14a-((cyclopropylsulfonyl)carbamoyl)-2-((6-methoxy-4-(2-methoxyethoxyl)isoquinolin-1-yl)oxy)-7,9-dimethyl-5,16-dioxo-1,2,3,5,6,7,8,9,10,11,13a,14,14a,15,16,16a-hexadecahydrocyclopropa[e]pyrrolo[1,2-a][1,4]diazacyclopentadecin-6-yl)carbamate] | 4.82 to 103 | 4.82 to 103
2 | COc1cnc(O[C@@H]2C[C@H]3C(=O)N[C@]4(C(=O)NS(=O)(=O)C5CC5)C[C@H]4/C=C\CC[C@H](C)C[C@@H](C)[C@H](NC(=O)OC(C)(C)C)C(=O)N3C2)c2cc(Cl)ccc12 [Compound 1160, tert-butyl ((2R,6S,7R,9S,13aS,14aR,16aS,Z)-2-((7-chloro-4-methoxyisoquinolin-1-yl)oxy)-14a-((cyclopropylsulfonyl)carbamoyl)-7,9-dimethyl-5,16-dioxo-1,2,3,5,6,7,8,9,10,11,13a,14,14a,15,16,16a-hexadecahydrocyclopropa[e]pyrrolo[1,2-a][1,4]diazacyclopentadecin-6-yl)carbamate] | 4.82 to 103 | < 5.46
3 | COc1cnc(O[C@@H]2C[C@H]3C(=O)N[C@]4(C(=O)NS(=O)(=O)C5CC5)C[C@H]4/C=C\CC[C@@H](C)C[C@@H](C)[C@H](NC(=O)OC(C)(C)C)C(=O)N3C2)c2cc(Cl)ccc12 [Compound 1161, tert-butyl ((2R,6S,7R,9R,13aS,14aR,16aS,Z)-2-((7-chloro-4-methoxyisoquinolin-1-yl)oxy)-14a-((cyclopropylsulfonyl)carbamoyl)-7,9-dimethyl-5,16-dioxo-1,2,3,5,6,7,8,9,10,11,13a,14,14a,15,16,16a-hexadecahydrocyclopropa[e]pyrrolo[1,2-a][1,4]diazacyclopentadecin-6-yl)carbamate] | < 5.46 | < 5.46
4 | COc1ccc2c(O[C@@H]3C[C@H]4C(=O)N[C@]5(C(=O)NS(=O)(=O)C6(CF)CC6)C[C@H]5/C=C\CC[C@H](C)C[C@@H](C)[C@H](NC(=O)OC(C)(C)C)C(=O)N4C3)nc(Cl)cc2c1 [Compound 1162, tert-butyl ((2R,6S,7R,9S,13aS,14aR,16aS,Z)-2-((3-chloro-6-methoxyisoquinolin-1-yl)oxy)-14a-(((1-(fluoromethyl)cyclopropyl)sulfonyl)carbamoyl)-7,9-dimethyl-5,16-dioxo-1,2,3,5,6,7,8,9,10,11,13a,14,14a,15,16,16a-hexadecahydrocyclopropa[e]pyrrolo[1,2-a][1,4]diazacyclopentadecin-6-yl)carbamate] | 4.82 to 103 | 4.82 to 103
5 | COc1ccc2c(O[C@@H]3C[C@H]4C(=O)N[C@]5(C(=O)NS(=O)(=O)C6(CF)CC6)C[C@H]5/C=C\CC[C@@H](C)C[C@@H](C)[C@H](NC(=O)OC(C)(C)C)C(=O)N4C3)nc(Cl)cc2c1 [Compound 1163, tert-butyl ((2R,6S,7R,9R,13aS,14aR,16aS,Z)-2-((3-chloro-6-methoxyisoquinolin-1-yl)oxy)-14a-(((1-(fluoromethyl)cyclopropyl)sulfonyl)carbamoyl)-7,9-dimethyl-5,16-dioxo-1,2,3,5,6,7,8,9,10,11,13a,14,14a,15,16,16a-hexadecahydrocyclopropa[e]pyrrolo[1,2-a][1,4]diazacyclopentadecin-6-yl)carbamate] | < 5.46 | < 5.46
6 | COc1ccc2c(O[C@@H]3C[C@H]4C(=O)N[C@]5(C(=O)NS(=O)(=O)C6(CF)CC6)C[C@H]5/C=C\CC[C@H](C)C[C@@H](C)[C@H](NC(=O)OC(C)(C)C(F)(F)F)C(=O)N4C3)nc(Cl)cc2c1 [Compound 1164, 1,1,1-trifluoro-2-methylpropan-2-yl((2R,6S,7R,9S,13aS,14aR,16aS,Z)-2-((3-chloro-6-methoxyisoquinolin-1-yl)oxy)-14a-(((1-(fluoromethyl)cyclopropyl)sulfonyl)carbamoyl)-7,9-dimethyl-5,16-dioxo-1,2,3,5,6,7,8,9,10,11,13a,14,14a,15,16,16a-hexadecahydrocyclopropa[e]pyrrolo[1,2-a][1,4]diazacyclopentadecin-6-yl)carbamate] | 4.82 to 103 | 4.82 to 103
7 | COc1ccc2c(O[C@@H]3C[C@H]4C(=O)N[C@]5(C(=O)NS(=O)(=O)C6(CF)CC6)C[C@H]5/C=C\CC[C@@H](C)C[C@@H](C)[C@H](NC(=O)OC(C)(C)C(F)(F)F)C(=O)N4C3)nc(Cl)cc2c1 [Compound 1165, 1,1,1-trifluoro-2-methylpropan-2-yl((2R,6S,7R,9R,13aS,14aR,16aS,Z)-2-((3-chloro-6-methoxyisoquinolin-1-yl)oxy)-14a-(((1-(fluoromethyl)cyclopropyl)sulfonyl)carbamoyl)-7,9-dimethyl-5,16-dioxo-1,2,3,5,6,7,8,9,10,11,13a,14,14a,15,16,16a-hexadecahydrocyclopropa[e]pyrrolo[1,2-a][1,4]diazacyclopentadecin-6-yl)carbamate] | < 5.46 | < 5.46
8 | COc1ccc2c(O[C@@H]3C[C@H]4C(=O)N[C@]5(C(=O)NS(=O)(=O)C6(CF)CC6)C[C@H]5/C=C\CC[C@H](C)C[C@@H](C)[C@H](NC(=O)OC(C)(C)C(C)(F)F)C(=O)N4C3)ncc(C(F)(F)F)c2c1 [Compound 1166, 3,3-difluoro-2-methylbutan-2-yl((2R,6S,7R,9S,13aS,14aR,16aS,Z)-14a-(((1-(fluoromethyl)cyclopropyl)sulfonyl)carbamoyl)-2-((6-methoxy-4-(trifluoromethyl)isoquinolin-1-yl)oxy)-7,9-dimethyl-5,16-dioxo-1,2,3,5,6,7,8,9,10,11,13a,14,14a,15,16,16a-hexadecahydrocyclopropa[e]pyrrolo[1,2-a][1,4]diazacyclopentadecin-6-yl)carbamate] | 4.82 to 103 | 4.82 to 103
9 | COc1ccc2c(O[C@@H]3C[C@H]4C(=O)N[C@]5(C(=O)NS(=O)(=O)C6(CF)CC6)C[C@H]5/C=C\CC[C@@H](C)C[C@@H](C)[C@H](NC(=O)OC(C)(C)C(C)(F)F)C(=O)N4C3)ncc(C(F)(F)F)c2c1 [Compound 1167, 3,3-difluoro-2-methylbutan-2-yl((2R,6S,7R,9R,13aS,14aR,16aS,Z)-14a-(((1-(fluoromethyl)cyclopropyl)sulfonyl)carbamoyl)-2-((6-methoxy-4-(trifluoromethyl)isoquinolin-1-yl)oxy)-7,9-dimethyl-5,16-dioxo-1,2,3,5,6,7,8,9,10,11,13a,14,14a,15,16,16a-hexadecahydrocyclopropa[e]pyrrolo[1,2-a][1,4]diazacyclopentadecin-6-yl)carbamate] | < 5.46 | < 5.46
10 | COc1ccc2c(O[C@@H]3C[C@H]4C(=O)N[C@]5(C(=O)NS(=O)(=O)C6(CF)CC6)C[C@H]5/C=C\CC[C@H](C)C[C@@H](C)[C@H](NC(=O)OC(C)(C)C(F)(F)F)C(=O)N4C3)nc(C(F)(F)F)cc2c1 [Compound 1168, 1,1,1-trifluoro-2-methylpropan-2-yl((2R,6S,7R,9S,13aS,14aR,16aS,Z)-14a-(((1-(fluoromethyl)cyclopropyl)sulfonyl)carbamoyl)-2-((6-methoxy-3-(trifluoromethyl)isoquinolin-1-yl)oxy)-7,9-dimethyl-5,16-dioxo-1,2,3,5,6,7,8,9,10,11,13a,14,14a,15,16,16a-hexadecahydrocyclopropa[e]pyrrolo[1,2-a][1,4]diazacyclopentadecin-6-yl)carbamate] | 4.82 to 103 | 4.82 to 103
11 | COc1ccc2c(O[C@@H]3C[C@H]4C(=O)N[C@]5(C(=O)NS(=O)(=O)C6(CF)CC6)C[C@H]5/C=C\CC[C@@H](C)C[C@@H](C)[C@H](NC(=O)OC(C)(C)C(F)(F)F)C(=O)N4C3)nc(C(F)(F)F)cc2c1 [Compound 1169, 1,1,1-trifluoro-2-methylpropan-2-yl((2R,6S,7R,9R,13aS,14aR,16aS,Z)-14a-(((1-(fluoromethyl)cyclopropyl)sulfonyl)carbamoyl)-2-((6-methoxy-3-(trifluoromethyl)isoquinolin-1-yl)oxy)-7,9-dimethyl-5,16-dioxo-1,2,3,5,6,7,8,9,10,11,13a,14,14a,15,16,16a-hexadecahydrocyclopropa[e]pyrrolo[1,2-a][1,4]diazacyclopentadecin-6-yl)carbamate] | < 5.46 | < 5.46
12 | COc1ccc2c(O[C@@H]3C[C@H]4C(=O)N[C@]5(C(=O)NS(=O)(=O)C6(CF)CC6)C[C@H]5/C=C\CC[C@H](C)C[C@@H](C)[C@H](NC(=O)OC(C)(C)C(C)(F)F)C(=O)N4C3)nc(C(F)(F)F)cc2c1 [Compound 1170, 3,3-difluoro-2-methylbutan-2-yl((2R,6S,7R,9S,13aS,14aR,16aS,Z)-14a-(((1-(fluoromethyl)cyclopropyl)sulfonyl)carbamoyl)-2-((6-methoxy-3-(trifluoromethyl)isoquinolin-1-yl)oxy)-7,9-dimethyl-5,16-dioxo-1,2,3,5,6,7,8,9,10,11,13a,14,14a,15,16,16a-hexadecahydrocyclopropa[e]pyrrolo[1,2-a][1,4]diazacyclopentadecin-6-yl)carbamate] | 4.82 to 103 | 4.82 to 103
